Results reported in US11766468B2, “Method of treating prostate cancer with GnRH antagonist” (priority 2012, dated 2023).
Marks after values point to notes of the source that are not given here. Square brackets hold non-standard residues; d marks the D form. Peptide text beside a SMILES is read from it. * marks the point of attachment. dPhe(4-NHCONH2) = NC(=O)Nc1ccc(C[C@@H](N)C(=O)O)cc1; Dihydroorotyl(S) = O=C1C[C@@H](C(=O)*)NC(=O)N1; dPhe(4-Cl) = N[C@H](Cc1ccc(Cl)cc1)C(=O)O; Phe(4-NH2) = Nc1ccc(C[C@H](N)C(=O)O)cc1; d2Nal = N[C@H](Cc1ccc2ccccc2c1)C(=O)O; Lys(iPr) = CC(C)NCCCC[C@H](N)C(=O)O; d3Pal = N[C@H](Cc1cccnc1)C(=O)O

Assay: CS21 safety: treatment-emergent adverse events (MedDRA SOC/PT), crude incidence, also by subgroup
Format: in vivo
Experimental: The safety variables for this study were assessed on the following: the frequency and severity of adverse events (AEs); the presence of clinically significant changes in laboratory parameters (clinical chemistry, hematology and urinalysis); changes in electrocardiograms (ECGs) and vital signs; changes detected by physical examination; and body weight.
An AE was therefore any unfavorable or unintended sign (including an abnormal laboratory finding), symptom or disease temporally associated with the use of the product, whether or not related to the IMP.
An adverse drug reaction (ADR) was defined as an AE evaluated by the investigator as being probably or possibly related to treatment with the IMP.
AEs were graded according to the National Cancer Institute (NCI) Common Terminology Criteria for Adverse Events (CTCAE). In accordance with the CTCAE criteria, AEs were rated on a five-point scale corresponding to mild, moderate, severe, life-threatening or disabling and death. For those AEs not described in the CTCAE, a separate five-point rating scale was used for rating of the intensity of AEs as follows below:
Safety parameters were evaluated for all patients included in the ITT analysis set, comprising all 610 randomized patients who received at least one dose of study medication. All safety tables include four columns: the three treatment groups described separately, and the pooled degarelix group.
Adverse events were regarded as ‘treatment-emergent’ if they occurred in the time interval from initial dosing to end-of-study. Adverse events were considered ‘pre-treatment’ if they occurred between screening and the initial injections of IMP. As described above, all AEs were classified according to MedDRA (version 10.0) system organ class (SOC), sorted alphabetically, and by preferred term (PT), in decreasing frequency of occurrence. Treatment-emergent AEs were expressed in terms of intensity (using NCI CTCAE) and relationship to study drug.
Using the results from the summary of clinical efficacy (SCE) and summary of clinical safety (SCS) findings, different patient subgroups were analyzed. Subgroup distinguishers included race (white, black, and other), age (<65 years, […], and >75 years), weight (<70 kg, ≥70−<90 kg, and ≥90 kg), body mass index (BMI) (≤20, >20 to 30, and >30 kg/m^2)), region (North-America, Western Europe, Central and Eastern Europe and Other), and stage of prostate cancer (e.g., localized, locally advanced, and metastatic).

[1] = PCA = Localised, pooled degarelix
[2] = PCA = Locally advanced, pooled degarelix
[3] = PCA = Metastatic, pooled degarelix
[4] = Weight 70-<90 kg, pooled degarelix
[5] = Weight <70 kg, pooled degarelix
[6] = Weight >=90 kg, pooled degarelix
[7] = degarelix 240/80 mg, listed as degarelix

## CC(=O)N[C@H](Cc1ccc2ccccc2c1)C(=O)N[C@H](Cc1ccc(Cl)cc1)C(=O)N[C@H](Cc1cccnc1)C(=O)N[C@@H](CO)C(=O)N[C@@H](Cc1ccc(NC(=O)[C@@H]2CC(=O)NC(=O)N2)cc1)C(=O)N[C@H](Cc1ccc(NC(N)=O)cc1)C(=O)N[C@@H](CC(C)C)C(=O)N[C@@H](CCCCNC(C)C)C(=O)N1CCC[C@H]1C(=O)N[C@H](C)C(N)=O [Degarelix, D-Alaninamide, N-acetyl-3-(2-naphthalenyl)-D-alanyl-4-chloro-D-phenylalanyl-3-(3-pyridinyl)-D-alanyl-L-seryl-4-[[[(4S)-hexahydro-2,6-dioxo-4-pyrimidinyl]carbonyl]amino]-L phenylalanyl-4-[(aminocarbonyl)amino]-D-phenylalanyl-L leucyl-N6-(1-methylethyl)-L-lysyl-L-prolyl] (Ac-[d2Nal][dPhe(4-Cl)][d3Pal]S[Phe(4-NH2)](Dihydroorotyl(S))[dPhe(4-NHCONH2)]L[Lys(iPr)]P[dA]-NH2)
Age <65, pooled degarelix
  Gastrointestinal disorders, % of patients: (9%)*
  Infections and infestations, % of patients: (16%)
  Musculoskeletal and connective tissue disorders, % of patients: (9%)**
  Renal and urinary disorders, % of patients: (10%)*
  Subjects with adverse events, %: (75%)
  Urinary retention, % of patients: (1%)*
[1]
  Depression, % of patients: (<1%)*
  Erectile dysfunction, % of patients: (<1%)*
  Gynaecomastia, % of patients: (<1%)
  Infections and infestations, % of patients: (17%)
  Musculoskeletal and connective tissue disorders, % of patients: (16%)
  Neoplasms benign, malignant and unspecified, % of patients: (3%)
  Oedema peripheral, % of patients: (2%)*
  Psychiatric disorders, % of patients: (9%)
  Reproductive system and breast disorders, % of patients: (4%)
  Subjects with adverse events, %: (81%)
  Upper respiratory tract infection, % of patients: (3%)
  Urinary tract infection, % of patients: (2%)*
[2]
  Arthralgia, % of patients: (2%)**
  Back pain, % of patients: ( 5%)
  Cardiac disorders, % of patients: (3%)
  Diarrhoea, % of patients: (<1%)*
  Dyspnoea, N patients: 0
  Fall, % of patients: (<1%)
  Gastrointestinal disorders, % of patients: (13%)
  Infections and infestations, % of patients: (13%)
  Injury, poisoning and procedural complications, % of patients: (2%)**
  Muscle strain, % of patients: (<1%)
  Musculoskeletal and connective tissue disorders, % of patients: (10%)
  Respiratory, thoracic and mediastinal disorders, % of patients: ( 7%)
  Subjects with adverse events, %: (74%)
  Urinary tract infection, % of patients: (<1%)**
[3]
  Arthralgia, % of patients: ( 5%)
  Back pain, % of patients: ( 5%)
  Gastrointestinal disorders, % of patients: (15%)
  Musculoskeletal and connective tissue disorders, % of patients: (21%)
  Pain in extremity, % of patients: ( 1%)
  Subjects with adverse events, %: (81%)
Race = Other, pooled degarelix
  Erectile dysfunction, % of patients: (2%)*
  Infections and infestations, % of patients: (33%)
  Reproductive system and breast disorders, % of patients: (10%)
  Subjects with adverse events, %: (95%)
  Urinary tract infection, % of patients: (5%)*
Race = White, pooled degarelix
  Cardiac disorders, % of patients: (10%)
  Chest pain, % of patients: (<1%)*
  Cystitis noninfective, N patients: 0
  Deep vein thrombosis, N patients: 0
  Infections and infestations, % of patients: (19%)
  Investigations, % of patients: (26%)
  Musculoskeletal and connective tissue disorders, % of patients: (15%)**
  Musculoskeletal stiffness, N patients: 0
  Myocardial ischaemia, % of patients: (<1%)*
  Oedema peripheral, % of patients: (1%)*
  Orthostatic hypotension, N patients: 0
  Renal and urinary disorders, % of patients: (14%)
  Subjects with adverse events, %: (79%)
  Upper respiratory tract infection, % of patients: (<1%)*
  Urinary retention, % of patients: ( 1%)*
  Vascular disorders, % of patients: (31%)
[4]
  Cardiac disorders, % of patients: ( 5%)*
  Erectile dysfunction, % of patients: (<1%)*
  Nervous system disorders, % of patients: (12%)
  Reproductive system and breast disorders, % of patients: ( 5%)
  Subjects with adverse events, %: (81%)
[5]
  Arthralgia, % of patients: ( 3%)**
  Musculoskeletal and connective tissue disorders, % of patients: (17%)*
  Pelvic pain, N patients: 0
  Reproductive system and breast disorders, % of patients: (4%)*
  Subjects with adverse events, %: (78%)
[6]
  Arthralgia, % of patients: ( 5%)
  Back pain, % of patients: ( 5%)*
  Infections and infestations, % of patients: (26%)
  Musculoskeletal and connective tissue disorders, % of patients: (15%)*
  Neoplasms benign, malignant and unspecified, % of patients: (1%)*
  Subjects with adverse events, %: (84%)
  Urinary tract infection, % of patients: ( 3%)*
Degarelix 240/80 mg
  ADRs, % of patients: 57%
  ADRs, E events: 459
  ADRs, N patients: 118
  AEs leading to discontinuation, % of patients: 7%
  AEs leading to discontinuation, E events: 15
  AEs leading to discontinuation, N patients: 15
  Alanine aminotransferase increased, % of patients: (10%)
  All AEs, E = number of adverse events: 937
  All AEs, N = number of patients: 163
  Arthralgia, % of patients: ( 5%)
  Aspartate aminotransferase increased, % of patients: ( 5%)
  Back pain, % of patients: ( 6%)
  Blood & lymphatic system disorders, % of patients: ( 2%)
  Cardiac disorders, % of patients: ( 8%)
  Chills, % of patients: ( 5%)
  Constipation, % of patients: ( 5%)
  Deaths (Grade 5), % of patients: 2%
  Deaths (Grade 5), E events: 5
  Deaths (Grade 5), N patients: 5
  Ear & labyrinth disorders, % of patients: ( 3%)
  Endocrine disorders, % of patients: (<1%)
  Eye disorders, % of patients: ( 3%)
  Fatigue, % of patients: ( 3%)
  Gastrointestinal disorders, % of patients: (18%)
  General disorders & administration site conditions, % of patients: (44%)
  Hepatobiliary disorders, % of patients: (<1%)
  Hot flush, % of patients: (26%)
  Hypercholesterolaemia, % of patients: ( 3%)
  Hypertension, % of patients: ( 6%)
  Immune system disorders, % of patients: (<1%)
  Infections & infestations, % of patients: (22%)
  Injection site erythema, % of patients: (17%)
  Injection site induration, % of patients: ( 4%)
  Injection site nodule, % of patients: ( 3%)
  Injection site pain, % of patients: (28%)
  Injection site swelling, % of patients: ( 6%)
  Injury, poisoning & procedural complications, % of patients: ( 5%)
  Investigations, % of patients: (26%)
  Metabolism & nutrition disorders, % of patients: ( 7%)
  Musculoskeletal & connective tissue disorders, % of patients: (15%)
  Nausea, % of patients: ( 4%)
  Neoplasms benign, malignant & unspecified, % of patients: ( 5%)
  Nervous system disorders, % of patients: (12%)
  Psychiatric disorders, % of patients: ( 8%)
  Renal & urinary disorders, % of patients: (14%)
  Reproductive system & breast disorders, % of patients: ( 4%)
  Respiratory, thoracic & mediastinal disorders, % of patients: (12%)
  Serious AEs, % of patients: 10%
  Serious AEs, E events: 26
  Serious AEs, N patients: 21
  Skin & subcutaneous tissue disorders, % of patients: ( 9%)
  Urinary tract infection, % of patients: ( 5%)
  Vascular disorders, % of patients: (34%)
  Weight increased, % of patients: ( 9%)
Degarelix 240/80 mg s.c., leuprolide 7.5 mg i.m.
  Injection site adverse events, % of subjects: 35%
Degarelix 240/80 mg, leuprolide 7.5 mg
  ADRs excluding injection site reactions, % of patients: 43%
[7]
  Arthralgia, % of patients: 5%
  Back pain, % of patients: 6%
  Chills, % of patients: 5%
  Constipation, % of patients: 5%
  Fatigue, % of patients: 3%
  Hot flush, % of patients: 26%
  Hypertension, % of patients: 6%
  Injection site erythema, % of patients: 17%
  Injection site induration, % of patients: 4%
  Injection site nodule, % of patients: 3%
  Injection site pain, % of patients: 28%
  Injection site swelling, % of patients: 6%
  Musculoskeletal & connective tissue disorders, % of patients: 15%
  Treatment-emergent adverse events (all AEs), % of patients: 79%
  Urinary tract infection, % of patients: 5%
  Weight increased, % of patients: 9%
Degarelix 240/160 mg
  ADRs excluding injection site reactions, % of patients: 44%
  ADRs, % of patients: 59%
  ADRs, E events: 463
  ADRs, N patients: 120
